Laboratory results reported in article PMC10821196, “Analysis of Marrubiin in Marrubium alysson L. Extract Using Advanced HPTLC: Chemical Profiling, Acetylcholinesterase Inhibitory Activity, and Molecular Docking” (Metabolites, 2023).

Target: T1, acetylcholinesterase (AChE) (Electrophorus electricus, UniProt O42275)
T1 construct: commercial native enzyme from electric eel (Sigma-Aldrich)
Assay: Ellman assay, […] nm
Assay type: biochemical

T1 sequence (O42275 24-633): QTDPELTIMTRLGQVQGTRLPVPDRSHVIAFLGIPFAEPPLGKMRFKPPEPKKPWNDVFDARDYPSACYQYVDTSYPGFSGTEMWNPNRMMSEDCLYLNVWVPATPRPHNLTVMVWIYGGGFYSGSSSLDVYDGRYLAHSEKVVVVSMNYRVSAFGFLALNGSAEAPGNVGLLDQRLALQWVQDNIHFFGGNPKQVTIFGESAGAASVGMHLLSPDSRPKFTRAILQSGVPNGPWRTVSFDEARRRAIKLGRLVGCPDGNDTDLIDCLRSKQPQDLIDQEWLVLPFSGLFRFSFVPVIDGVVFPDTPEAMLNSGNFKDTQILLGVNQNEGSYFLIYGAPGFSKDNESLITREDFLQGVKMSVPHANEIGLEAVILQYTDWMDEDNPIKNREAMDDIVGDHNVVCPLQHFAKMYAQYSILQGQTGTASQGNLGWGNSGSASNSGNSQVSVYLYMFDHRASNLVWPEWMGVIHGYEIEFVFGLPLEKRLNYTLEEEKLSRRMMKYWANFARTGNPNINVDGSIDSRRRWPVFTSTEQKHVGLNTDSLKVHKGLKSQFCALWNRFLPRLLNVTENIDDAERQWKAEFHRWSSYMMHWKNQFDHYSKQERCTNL

**Q.** For `C[C@@H]1C[C@H]2OC(=O)[C@@]3(C)CCC[C@@](C)([C@@H]23)[C@@]1(O)CCc1ccoc1` [marrubiin], which IC50 is on record?
**A.** 52.7 ± 5.66 µM
